Laboratory results: publication PMC12881681 (Molecular Pharmacology, 2025)
“And” between values parts separate entries of the source, which are not always exact repeats. Identical values can stand only once. Like-named read-outs stand apart in the source and are kept apart here.

Experiments:
AOX1 (rat liver cytosol) = assay: Inactivation of carbazeran 4-oxidation by rat liver cytosol; type: biochemical; settings: 10 μM (raloxifene 0.02 μM), 30-minute preincubation
Description: (§1) Carbazeran 4-oxidation and O^6-benzylguanine 8-oxidation were deployed as AOX1-selective catalytic markers.[27] The assay conditions (amount of cytosolic protein, incubation time, and substrate concentration) for carbazeran 4-oxidation catalyzed by human recombinant AOX1 and human/rat/mouse liver cytosols were optimized previously.[7]^,[25]
(§2) Enzymatic reaction was initiated by adding human liver cytosol (100 μg). After the specified preincubation duration, an aliquot (10 μL) of the preincubation mixture was transferred to 190 μL of a prewarmed (for 3 minutes at 37 °C) secondary incubation mixture (total volume of 200 μL) containing potassium phosphate buffer and carbazeran (15 μM) or O^6-benzylguanine (150 μM), which yielded a 20-fold dilution of the primary incubation mixture. The secondary incubation mixture was incubated for 5 minutes at 37 °C before the enzymatic reaction was terminated with 200 μL of ice-cold acetonitrile containing carbazeran-d4 (2.5 nM final concentration; internal standard for 4-oxo-carbazeran) or tolbutamide (25 nM final concentration; internal standard for 8-oxo-O^6-benzylguanine). Each sample was immediately mixed by vortex, placed on ice, centrifuged at 16,000g for 15 minutes at 4 °C and stored at –30 °C until ultra-high performance liquid chromatography–tandem mass spectrometry (UPLC-MS/MS) analysis. For enzyme inactivation assays involving rat and mouse liver cytosol and recombinant AOX1 assays, the experimental conditions were similar to those of human liver cytosol, except that the amount of cytosolic protein was 200 μg (rat) and 150 μg (mouse), respectively, and the incubation time of the secondary incubation mixture was 60 minutes. For the recombinant AOX1 enzyme assay, the amount of enzyme was 100 μg, the incubation time of the secondary incubation mixture was 15 minutes, and the total volume of the primary and secondary incubation mixtures was reduced to 100 μL.
(§3) An aliquot (10 μL) of the primary incubation mixture was transferred to a secondary incubation mixture containing carbazeran (15 μM) and incubated for (A) 180, (B) 5, or (C, D) 120 minutes.

human recombinant AOX1 = target: T1, human recombinant AOX1 (Homo sapiens, UniProt Q06278); assay: Time-dependent inactivation of carbazeran 4-oxidation by human recombinant AOX1; type: biochemical; settings: each 10 μM (raloxifene 0.02 μM), 30-minute preincubation, vs vehicle control without preincubation
T1 construct: purchased Cypex Ltd CYP150
T1 sequence (Q06278 1-1338): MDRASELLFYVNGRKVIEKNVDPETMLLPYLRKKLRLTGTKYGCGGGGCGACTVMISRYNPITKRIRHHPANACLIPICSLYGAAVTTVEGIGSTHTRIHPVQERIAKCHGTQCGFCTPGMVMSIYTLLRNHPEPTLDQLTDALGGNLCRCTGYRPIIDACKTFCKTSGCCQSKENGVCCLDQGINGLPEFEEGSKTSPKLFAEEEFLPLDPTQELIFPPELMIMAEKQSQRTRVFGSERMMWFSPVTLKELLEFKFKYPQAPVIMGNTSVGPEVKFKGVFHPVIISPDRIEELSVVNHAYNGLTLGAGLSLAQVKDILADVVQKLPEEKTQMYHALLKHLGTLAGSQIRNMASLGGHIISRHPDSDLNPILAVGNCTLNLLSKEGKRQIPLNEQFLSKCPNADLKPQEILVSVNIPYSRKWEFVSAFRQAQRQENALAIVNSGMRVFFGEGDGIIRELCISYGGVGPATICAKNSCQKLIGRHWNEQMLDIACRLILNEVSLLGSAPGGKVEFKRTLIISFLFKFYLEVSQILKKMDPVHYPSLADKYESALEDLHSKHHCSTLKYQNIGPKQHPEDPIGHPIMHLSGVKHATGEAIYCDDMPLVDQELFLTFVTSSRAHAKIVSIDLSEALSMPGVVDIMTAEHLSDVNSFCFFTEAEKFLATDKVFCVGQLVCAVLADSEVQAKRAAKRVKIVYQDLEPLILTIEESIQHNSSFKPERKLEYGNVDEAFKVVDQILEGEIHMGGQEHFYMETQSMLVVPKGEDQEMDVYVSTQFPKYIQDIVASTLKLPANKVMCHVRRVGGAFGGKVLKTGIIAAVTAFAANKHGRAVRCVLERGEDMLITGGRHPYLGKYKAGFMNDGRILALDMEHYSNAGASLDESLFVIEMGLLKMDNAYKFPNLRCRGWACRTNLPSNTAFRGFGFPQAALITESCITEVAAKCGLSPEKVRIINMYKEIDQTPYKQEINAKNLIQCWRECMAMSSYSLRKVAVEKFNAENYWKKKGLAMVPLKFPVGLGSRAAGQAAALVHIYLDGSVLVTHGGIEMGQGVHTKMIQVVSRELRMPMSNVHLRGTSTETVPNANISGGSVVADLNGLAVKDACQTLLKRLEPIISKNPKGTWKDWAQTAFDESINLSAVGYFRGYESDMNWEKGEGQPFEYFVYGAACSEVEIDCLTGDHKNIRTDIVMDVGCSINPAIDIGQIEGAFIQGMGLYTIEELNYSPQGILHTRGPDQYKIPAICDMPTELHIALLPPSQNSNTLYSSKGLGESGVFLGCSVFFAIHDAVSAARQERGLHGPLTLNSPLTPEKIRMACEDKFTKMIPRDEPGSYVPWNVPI
Description: as §1, §2, §3

[1] = target: T2, human liver cytosolic AOX1 (Homo sapiens, UniProt Q06278); type: biochemical; set-up: Enzymatic reaction was initiated by adding human liver cytosol (100 μg); tissue Corning, Inc. (Gentest brand) 452115; host or cells: human liver cytosol, pool of 150 donors; settings: 5 mM agent, 10 min; erlotinib 1.5 μM, analogs 2 μM
T2 sequence (Q06278 1-1338): T1 sequence (Q06278 1-1338)
Description: Potassium ferricyanide (5 mM; oxidizing agent), sodium dithionite (5 mM; reducing agent), or potassium phosphate buffer (vehicle for oxidizing/reducing agent) was preincubated with human liver cytosol (200 μg protein) in a total volume of 100 μL at 37 °C for 10 minutes. […] After a 0 or 6-minute preincubation duration, an aliquot (10 μL) of the secondary incubation mixture was transferred to a prewarmed tertiary incubation mixture (total volume of 200 μL) containing potassium phosphate buffer and carbazeran (15 μM), which yielded a 20-fold dilution of the secondary incubation mixture. The tertiary incubation mixture was incubated for 5 minutes at 37 °C before the enzymatic reaction was terminated with 200 μL of ice-cold acetonitrile containing carbazeran-d4 (2.5 nM final concentration; internal standard for 4-oxo-carbazeran). The residual AOX1 enzyme activity was determined by the carbazeran 4-oxidation assay.

[2] = cancer patients, cited from earlier work; for Cmax: 150 mg/day erlotinib
[3] = clinical phase I study; cited from earlier work
[4] = ref erlotinib (TARCEVA), package insert, 2016; cited from earlier work
AOX1 = settings: zoniporide as AOX substrate; cited from earlier work

Row | Structure (SMILES) | decrease in carbazeran 4-oxidation (AOX1 (rat liver cytosol)) | decrease in carbazeran 4-oxidation (human recombinant AOX1) | effect of preincubating cytosol with potassium ferricyanide or sodium dithionite on AOX1 inactivation [1] | other results
1 | C#Cc1cccc(Nc2ncnc3cc(OCCOC)c(OCCO)cc23)c1 [O-Desmethylerlotinib, O-desmethylerlotinib] | 92%–97% | 91% |  | 
2 | C#Cc1cccc(Nc2nc(C)nc3cc(OCCOC)c(OCCOC)cc23)c1 [2-Methylerlotinib, 2-methylerlotinib] |  |  | neither sodium dithionite nor potassium ferricyanide affected | 
3 | C#Cc1cccc(Nc2ncnc3cc(OCCO)c(OCCO)cc23)c1 [O-Didesmethylerlotinib, O-didesmethylerlotinib] | 92%–97% | 94% |  | C24h ([2]; 150 mg/day erlotinib for 1–2 months): 0.86–4.2 ng/mL and 2.35–11.49 nM
4 | C#Cc1cccc(Nc2ncnc3cc(OCCOC)c(OCCOC)cc23)c1 [Erlotinib] |  |  | neither sodium dithionite nor potassium ferricyanide affected | effect on plasma concentration of OSI-930 [3]: increase; Plasma fu [4]: e Cmax,u = plasma fu × Cmax. Plasma fu = 0.07, based on erlotinib (TARCEVA), package insert, 2016. For O-desmethylerlotinib and O-didesmethylerlotinib, the fu is assumed to be similar to the parent drug.; Ki (AOX1): 720 nM; Cmax ([2]; day 28): 5.39 µM; Cmax ([2]; erlotinib in plasma, day 24 to day 28): 4.41 to 5.39 µM
